Data set [1] concerns MPTP-lesioned mouse model. Put plainly: MPTP-lesioned mouse model of Parkinson's disease. Type of data set: in vivo, C57BL/6J mice. From the text: In a subsequent study, we investigated the therapeutic efficacy of 11o in PD using an MPTP-lesioned mouse model. This MPTP-lesion mouse model is one of the most well-established PD models and causes an approximately 90% loss of striatal dopamine, as analyzed using HPLC 7 days after the administration of the last dose of MPTP [13].
Male C57BL/6J mice of 10 weeks of age were purchased from Charles River Laboratories (Charles River Laboratories, Freiburg, Germany) and maintained at QPS Austria. All procedures described were reviewed and approved by IACUC at QPS Austria. Animal studies conformed to the Austrial guidelines for the care and use of laboratory animals (Tierversuchsgesetz 2012-TVG 2012, BGB1. I Nr. 114/2012). […]
To test individual nest-building behavior, mice were housed individually in cages containing wood-chip bedding and one square of pressed cotton (‘nestlet’). […] The nestlet was introduced on the day before the evaluation of the nest status in about 2 to 3 h before the dark phase was initiated, and the nest-building behavior was evaluated on the following day of the experiment within 2~3 h after the light-phase start. […] Manipulation of the nestlet and the constitution of the built nest were assessed according to five-point scale as follows: 1. […]

Data set [2] can be described thus: metabolic stability in cryopreserved human hepatocytes. As for the experimental part:
Metabolic stability of 11o was determined in cryopreserved hepatocytes from mice, rats, dogs, monkeys and human according to the SOPs of Frontage Laboratories Inc. Briefly, cryopreserved hepatocytes for pre-clinical animals and for human (BioIVT, Westbury, NY, USA) were thawed in a 37 °C water bath with gentle shaking until ice had almost melted. The suspensions were immediately transferred to a centrifuge tube (50 mL) containing pre-warmed thawing media at 37 °C with gentle handshaking to prevent the cells from settling. Cell suspensions were centrifuged at 50× g and 4 °C for 5 min. The supernatant was discarded and the pellets were resuspended in prewarmed incubation media (5 mL) at 37 °C. The percentage of viable cells in the suspension was determined by Trypan blue staining method to ensure viability of ≥70 %. […] The samples were centrifuged and aliquots of the supernatant were analyzed for parent compounds by LC/MS/MS using suitable multiple reaction monitoring (MRM) transitions. […] The disappearance of 11o and midazolam was monitored by LC/MS/MS (MRM) analysis of the hepatocyte extracts at each time point. The peak area ratio of the analyte to internal standard was obtained for each sample and the rate of disappearance of 11o was assessed by comparing the peak area ratios at various time points to the peak area ratio obtained at t = 0. The t1/2 is obtained (using the linear portion of semi-log plot of the area ratio vs. time) and the CLint values determined using well-stirred model.

Setting [3] is: human, cryopreserved hepatocytes in suspension.

Molecules are shown by their SMILES.

For `Cc1cc(Cn2ncc3c(-c4cccc(C#N)c4F)nc(N)nc32)ccc1N` [11o, 3-(6-Amino-1-(4-amino-3-methylbenzyl)-1H-pyrazolo[3,4-d]pyrimidin-4-yl)-2-fluorobenzonitrile], the nest-building activity entry in data set [1] (MPTP-lesioned mice, intranasal 1 and 10 mg/kg, difference not significant) was “partially restored the activity level to near sham level”. The “rescue of striatal dopamine depletion caused by MPTP” value in data set [1] (once daily for 7 days, doses up to 10 mg/kg, data not shown) is listed as “unable to rescue dopamine depletion”. In addition, in data set [2] (human hepatocytes, 1 μM 11o), the “Extrapolated Clearance, CL” value is reported as 9.58 mL/min/kg and the “Intrinsic Clearance” value turned out to be 0.00377 mL/min/10^6 Cells. In data set [2] (setting [3]), the half-life (usually the time needed for the level to fall by half in the phase considered) at 1 μM is 184 min and the hepatocyte CLint – broadly, a measure of how fast metabolising enzymes remove a compound, apart from limits set by blood flow – at 1 μM worked out at 3.8 µL/min/1e6 cells. Further, the CLint scaled – broadly, the capacity of the preparation to metabolise the compound, expressed as a volume cleared per time – at 1 μM in data set [2] (human, cryopreserved hepatocytes in suspension, Extrapolated Clearance, CL, human hepatocytes, 1 μM 11o) is 9.6 mL/min/kg. Moreover, the “CLint in human hepatocytes relative to midazolam” value in data set [2] (human, hepatocytes) is reported as “less than 40 % of midazolam”.

The values are drawn from paper PMC9394284, “Discovery of Novel Dual Adenosine A2A and A1 Receptor Antagonists with 1H-Pyrazolo[3,4-d]pyrimidin-6-amine Core Scaffold as Anti-Parkinson’s Disease Agents” (Pharmaceuticals, 2022).
